Measured values reported in US12545640B2, “Substituted 6,7-dihydro-5H-benzo[7]annulene compounds, processes for their preparation and therapeutic uses thereof” (SANOFI, priority 2019, dated 2026).

Target: T1, ERα (Homo sapiens, UniProt P03372)
T1 construct: host or cells: MCF7 cells
T1 sequence (P03372 1-595): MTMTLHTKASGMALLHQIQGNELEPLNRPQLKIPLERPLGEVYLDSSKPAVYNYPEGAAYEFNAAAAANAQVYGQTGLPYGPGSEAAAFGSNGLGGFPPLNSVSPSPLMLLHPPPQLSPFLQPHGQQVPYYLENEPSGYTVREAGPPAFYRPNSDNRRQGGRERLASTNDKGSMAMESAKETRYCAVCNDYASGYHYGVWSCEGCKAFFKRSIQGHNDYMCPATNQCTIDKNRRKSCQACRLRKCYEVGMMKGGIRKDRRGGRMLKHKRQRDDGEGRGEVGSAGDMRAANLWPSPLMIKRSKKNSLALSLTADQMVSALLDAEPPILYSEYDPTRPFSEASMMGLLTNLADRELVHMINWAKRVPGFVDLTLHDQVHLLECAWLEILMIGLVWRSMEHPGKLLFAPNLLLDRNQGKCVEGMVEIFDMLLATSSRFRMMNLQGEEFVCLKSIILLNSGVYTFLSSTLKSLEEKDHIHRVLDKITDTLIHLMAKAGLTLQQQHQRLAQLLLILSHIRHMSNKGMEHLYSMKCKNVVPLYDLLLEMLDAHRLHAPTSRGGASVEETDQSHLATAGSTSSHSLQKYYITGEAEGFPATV
Assay: Estrogen receptor degradation activity: breast cancer cell ERα in cell western assay (MCF7 cells)
Format: cell-based
Conditions: 4 hours, final concentrations ranging from 3-0.000018 μM, relative to fulvestrant 0.1 μM positive control
Description: Test: Estrogen Receptor Degradation Activity
Said test involves measuring the in vitro degradation activity of the compounds of the invention.
The measurements of the degradation activities were made using a breast cancer cell ERα in cell western assay as described hereunder.
MCF7 cells (ATCC) were seeded in 384 wells microplate (collagen coated) at a concentration of 10000 cells/30 μL, per well in red phenol free MEM alpha medium (invitrogen) containing 5% charcoal dextran striped FBS. The following day, 9 points serial 1:5 dilution of each compound was added to the cells in 2.5 μL at final concentrations ranging either from 3-0.000018 μM (column «% Degradation at 3 μM in table 2) or from 0.3-0.0000018 μM (column «% Degradation at 0.3 μM in table 2), or 0.1 μM for fulvestrant (using as positive control). At 4 hours post compound addition the cells were fixed by adding 25 μL of formalin (final concentration 5% formalin containing 0.1% triton) for 10 minutes at room temperature and then washed twice with PBS. Then, 50 μL of LI-COR blocking buffer containing 0.1% Triton was added to plate for 30 minutes at room temperature. LI-COR blocking buffer was removed and cells were incubated overnight at cold room with 50 μL anti-ER rabbit monoclonal antibody (Thermo scientific MA1-39540) diluted at 1:1000 in LI-COR blocking buffer containing 0.1% tween-20. Wells which were treated with blocking buffer but no antibody were used as background control. Wells were washed twice with PBS (0.1% tween-20) and incubated at 37° C. for 60 minutes in LI-COR (0.1% tween-20) containing goat anti-rabbit antibody Alexa 488 (1:1000) and Syto-64 a DNA dye ([…]). Cells were then washed 3 times in PBS and scanned in ACUMEN explorer (TTP-Labtech). Integrated intensities in the green fluorescence and red fluorescence were measured to determine the levels of ERα and DNA respectively.

% Degradation At 3 μM [%] | Structure (SMILES)
65 | COC(=O)Nc1ccc2c(c1)CCCC(c1ccc(Cl)cc1Cl)=C2c1ccc(O[C@H]2CCN(CCCF)C2)cc1 [Example 25, Methyl (S)-(8-(2,4-dichlorophenyl)-9-(4-((1-(3-fluoropropyl)pyrrolidin-3-yl)oxy)phenyl)-6,7-dihydro-5H-benzo[7]annulen-3-yl)carbamate]
90 | N=C(NO)c1ccc2c(c1)CCCC(c1ccc(Cl)cc1Cl)=C2c1ccc(O[C@H]2CCN(CCCF)C2)cc1 [Example 26, (S)-8-(2,4-dichlorophenyl)-9-(4-((1-(3-fluoropropyl)pyrrolidin-3-yl)oxy)phenyl)-N-hydroxy-6,7-dihydro-5H-benzo[7]annulene-3-carboximidamide]
71 | O=c1[nH]c(-c2ccc3c(c2)CCCC(c2ccc(Cl)cc2Cl)=C3c2ccc(O[C@H]3CCN(CCCF)C3)cc2)no1 [Example 27, (S)-3-(8-(2,4-dichlorophenyl)-9-(4-((1-(3-fluoropropyl)pyrrolidin-3-yl)oxy)phenyl)-6,7-dihydro-5H-benzo[7]annulen-3-yl)-1,2,4-oxadiazol-5(4H)-one]
91 | Cl.O=S1NC(c2ccc3c(c2)CCCC(c2ccc(Cl)cc2Cl)=C3c2ccc(O[C@H]3CCN(CCCF)C3)cc2)=NO1 (stereo partly drawn) [Example 29, 4-(8-(2,4-dichlorophenyl)-9-(4-(((S)-1-(3-fluoropropyl)pyrrolidin-3-yl)oxy)phenyl)-6,7-dihydro-5H-benzo[7]annulen-3-yl)-3H-1,2,3,5-oxathiadiazole 2-oxide hydrochloride]
70 | CS(=O)(=O)Nc1ccc2c(c1)CCCC(c1ccc(Cl)cc1Cl)=C2c1ccc(O[C@H]2CCN(CCCF)C2)cc1 [Example 30, (S)—N-(8-(2,4-dichlorophenyl)-9-(4-((1-(3-fluoropropyl)pyrrolidin-3-yl)oxy)phenyl)-6,7-dihydro-5H-benzo[7]annulen-3-yl)methane sulfonamide]
95 | O=c1[nH]nc(-c2ccc3c(c2)CCCC(c2ccc(Cl)cc2Cl)=C3c2ccc(O[C@H]3CCN(CCCF)C3)cc2)o1 [Example 31, (S)-5-(8-(2,4-dichlorophenyl)-9-(4-((1-(3-fluoropropyl)pyrrolidin-3-yl)oxy)phenyl)-6,7-dihydro-5H-benzo[7]annulen-3-yl)-1,3,4-oxadiazol-2(3H)-one]
73 | CC(C)(C)OC(=O)Nc1ccc2c(c1)CCCC(c1ccc(Cl)cc1Cl)=C2c1ccc(O[C@H]2CCN(CCCF)C2)cc1 [Example 32, Tert-butyl (S)-(8-(2,4-dichlorophenyl)-9-(4-((1-(3-fluoropropyl)pyrrolidin-3-yl)oxy)phenyl)-6,7-dihydro-5H-benzo[7]annulen-3-yl)carbamate]
95 | O=c1oc(-c2ccc3c(c2)CCCC(c2ccc(Cl)cc2Cl)=C3c2ccc(O[C@H]3CCN(CCCF)C3)cc2)ns1 [Example 33, (S)-5-(8-(2,4-dichlorophenyl)-9-(4-((1-(3-fluoropropyl)pyrrolidin-3-yl)oxy)phenyl)-6,7-dihydro-5H-benzo[7]annulen-3-yl)-1,3,4-oxathiazol-2-one]
66 | FCCCN1CC[C@H](Oc2ccc(C3=C(c4ccc(Cl)cc4Cl)CCCc4cc(-c5noc(=S)[nH]5)ccc43)cc2)C1 [Example 34, (S)-3-(8-(2,4-dichlorophenyl)-9-(4-((1-(3-fluoropropyl)pyrrolidin-3-yl)oxy)phenyl)-6,7-dihydro-5H-benzo[7]annulen-3-yl)-1,2,4-oxadiazole-5(4H)-thione]
52 | O=S(=O)(Nc1ccc2c(c1)CCCC(c1ccc(Cl)cc1Cl)=C2c1ccc(O[C@H]2CCN(CCCF)C2)cc1)C(F)(F)F [Example 35, (S)—N-(8-(2,4-dichlorophenyl)-9-(4-((1-(3-fluoropropyl)pyrrolidin-3-yl)oxy)phenyl)-6,7-dihydro-5H-benzo[7]annulen-3-yl)-1,1,1-trifluoromethanesulfonamide]
93 | O=c1c(O)c(Nc2ccc3c(c2)CCCC(c2ccc(Cl)cc2Cl)=C3c2ccc(O[C@H]3CCN(CCCF)C3)cc2)c1=O [Example 36, (S)-3-((8-(2,4-dichlorophenyl)-9-(4-((1-(3-fluoropropyl)pyrrolidin-3-yl)oxy)phenyl)-6,7-dihydro-5H-benzo[7]annulen-3-yl)amino)-4-hydroxycyclobut-3-ene-1,2-dione]
98 | O=c1[nH]c(-c2ccc3c(c2)CCCC(c2ccc(Cl)cc2Cl)=C3c2ccc(O[C@H]3CCN(CCCF)C3)cc2)ns1 [Example 37, (S)-3-(8-(2,4-dichlorophenyl)-9-(4-((1-(3-fluoropropyl)pyrrolidin-3-yl)oxy)phenyl)-6,7-dihydro-5H-benzo[7]annulen-3-yl)-1,2,4-thiadiazol-5(4H)-one]
66 | O=C1OCCN1c1ccc2c(c1)CCCC(c1ccc(Cl)cc1Cl)=C2c1ccc(O[C@H]2CCN(CCCF)C2)cc1 [Example 40, (S)-3-(8-(2,4-dichlorophenyl)-9-(4-((1-(3-fluoropropyl)pyrrolidin-3-yl)oxy)phenyl)-6,7-dihydro-5H-benzo[7]annulen-3-yl)oxazolidin-2-one]
74 | O=C1OCCN1c1ccc(C2=C(c3ccc(O[C@H]4CCN(CCCF)C4)cc3)c3ccc(N4CCOC4=O)cc3CCC2)c(Cl)c1 [Example 41, (S)-3-(8-(2-chloro-4-(2-oxooxazolidin-3-yl)phenyl)-9-(4-((1-(3-fluoropropyl)pyrrolidin-3-yl)oxy)phenyl)-6,7-dihydro-5H-benzo[7]annulen-3-yl)oxazolidin-2-one]
95 | O=C1NC(=O)C(c2ccc3c(c2)CCCC(c2ccc(Cl)cc2Cl)=C3c2ccc(O[C@H]3CCN(CCCF)C3)cc2)N1 (stereo partly drawn) [Example 43, 5-(8-(2,4-dichlorophenyl)-9-(4-(((S)-1-(3-fluoropropyl)pyrrolidin-3-yl)oxy)phenyl)-6,7-dihydro-5H-benzo[7]annulen-3-yl)imidazolidine-2,4-dione]
50 | CON(C)C(=O)c1ccc2c(c1)CCCC(c1ccc(Cl)cc1Cl)=C2c1ccc(O[C@H]2CCN(CCCF)C2)cc1 [Example 44, (S)-8-(2,4-dichlorophenyl)-9-(4-((1-(3-fluoropropyl)pyrrolidin-3-yl)oxy)phenyl)-N-methoxy-N-methyl-6,7-dihydro-5H-benzo[7]annulene-3-carboxamide]
96 | FCCCN1CC[C@H](Oc2ccc(C3=C(c4ccc(Cl)cc4Cl)CCCc4cc(-c5n[nH]c(=S)o5)ccc43)cc2)C1 [Example 45, (S)-5-(8-(2,4-dichlorophenyl)-9-(4-((1-(3-fluoropropyl)pyrrolidin-3-yl)oxy)phenyl)-6,7-dihydro-5H-benzo[7]annulen-3-yl)-1,3,4-oxadiazole-2(3H)-thione]
95 | CC(=N)Nc1ccc2c(c1)CCCC(c1ccc(Cl)cc1Cl)=C2c1ccc(O[C@H]2CCN(CCCF)C2)cc1 [Example 46, (S)—N-(8-(2,4-dichlorophenyl)-9-(4-((1-(3-fluoropropyl)pyrrolidin-3-yl)oxy)phenyl)-6,7-dihydro-5H-benzo[7]annulen-3-yl)acetimidamide]
78 | O=C(Nc1ccc2c(c1)CCCC(c1ccc(Cl)cc1Cl)=C2c1ccc(O[C@H]2CCN(CCCF)C2)cc1)C(F)(F)F [Example 47, (S)—N-(8-(2,4-dichlorophenyl)-9-(4-((1-(3-fluoropropyl)pyrrolidin-3-yl)oxy)phenyl)-6,7-dihydro-5H-benzo[7]annulen-3-yl)-2,2,2-trifluoroacetamide]
70 | CC(=O)Nc1ccc2c(c1)CCCC(c1ccc(Cl)cc1Cl)=C2c1ccc(O[C@H]2CCN(CCCF)C2)cc1 [Example 48, (S)—N-(8-(2,4-dichlorophenyl)-9-(4-((1-(3-fluoropropyl)pyrrolidin-3-yl)oxy)phenyl)-6,7-dihydro-5H-benzo[7]annulen-3-yl)acetamide]
81 | FCCCN1CC[C@H](Oc2ccc(C3=C(c4ccc(Cl)cc4Cl)CCCc4cc(-c5cc[nH]n5)ccc43)cc2)C1 [Example 51, (S)-3-(8-(2,4-dichlorophenyl)-9-(4-((1-(3-fluoropropyl)pyrrolidin-3-yl)oxy)phenyl)-6,7-dihydro-5H-benzo[7]annulen-3-yl)-1H-pyrazole]
